Source: ChEMBL document CHEMBL5465560, “Selectivity Literature for EUbOPEN Chemogenomic Library” (2024)

Key:
[1] = target: T1, Mitogen-activated protein kinase 15 (Homo sapiens) (UniProt Q8TD08); assay: Selectivity interaction (KinomeScan (DiscoverX)) EUB0000607a MAPK15; conditions: at 10 µM
T1 sequence (whole entry): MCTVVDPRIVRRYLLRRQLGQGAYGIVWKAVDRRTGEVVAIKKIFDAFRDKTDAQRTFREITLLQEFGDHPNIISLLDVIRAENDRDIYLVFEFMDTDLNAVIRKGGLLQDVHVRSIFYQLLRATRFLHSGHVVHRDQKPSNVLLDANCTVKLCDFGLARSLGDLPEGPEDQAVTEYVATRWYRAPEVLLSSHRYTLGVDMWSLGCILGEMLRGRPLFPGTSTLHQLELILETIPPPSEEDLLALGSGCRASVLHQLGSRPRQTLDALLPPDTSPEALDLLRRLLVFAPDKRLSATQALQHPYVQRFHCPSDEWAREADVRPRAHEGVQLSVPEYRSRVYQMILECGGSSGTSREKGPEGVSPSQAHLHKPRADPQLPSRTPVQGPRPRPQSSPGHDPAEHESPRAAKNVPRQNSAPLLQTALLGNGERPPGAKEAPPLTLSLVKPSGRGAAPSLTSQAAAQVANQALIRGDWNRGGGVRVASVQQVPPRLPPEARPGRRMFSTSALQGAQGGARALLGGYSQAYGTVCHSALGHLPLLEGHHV

[2] = target: T2, Serine/threonine-protein kinase BRSK1 (Homo sapiens) (UniProt Q8TDC3); assay: Selectivity interaction (KinomeScan (DiscoverX)) EUB0000607a BRSK1; conditions: at 10 µM
T2 sequence (whole entry): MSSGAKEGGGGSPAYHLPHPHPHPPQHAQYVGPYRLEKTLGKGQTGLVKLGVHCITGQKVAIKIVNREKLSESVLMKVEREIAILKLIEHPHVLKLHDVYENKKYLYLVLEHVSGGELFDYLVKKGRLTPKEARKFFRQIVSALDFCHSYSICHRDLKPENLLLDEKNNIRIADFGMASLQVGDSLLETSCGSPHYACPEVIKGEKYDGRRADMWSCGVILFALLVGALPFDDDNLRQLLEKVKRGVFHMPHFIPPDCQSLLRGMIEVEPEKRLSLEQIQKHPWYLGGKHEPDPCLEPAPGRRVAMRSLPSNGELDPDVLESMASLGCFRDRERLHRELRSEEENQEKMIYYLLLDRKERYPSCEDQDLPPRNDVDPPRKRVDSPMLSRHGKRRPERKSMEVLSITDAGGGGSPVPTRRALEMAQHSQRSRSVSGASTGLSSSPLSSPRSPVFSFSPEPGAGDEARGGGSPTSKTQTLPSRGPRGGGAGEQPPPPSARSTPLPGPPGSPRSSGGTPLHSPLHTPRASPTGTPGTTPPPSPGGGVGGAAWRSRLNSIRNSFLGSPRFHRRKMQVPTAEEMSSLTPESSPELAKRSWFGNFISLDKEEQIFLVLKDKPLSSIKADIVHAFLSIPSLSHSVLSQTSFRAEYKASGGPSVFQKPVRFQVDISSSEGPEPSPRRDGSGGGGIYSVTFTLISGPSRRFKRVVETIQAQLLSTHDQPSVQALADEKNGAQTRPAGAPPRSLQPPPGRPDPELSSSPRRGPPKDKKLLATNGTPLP

[3] = target: T3, NUAK family SNF1-like kinase 2 (Homo sapiens) (UniProt Q9H093); assay: Selectivity interaction (KinomeScan (DiscoverX)) EUB0000695a NUAK2; conditions: at 100 nM
T3 sequence (whole entry): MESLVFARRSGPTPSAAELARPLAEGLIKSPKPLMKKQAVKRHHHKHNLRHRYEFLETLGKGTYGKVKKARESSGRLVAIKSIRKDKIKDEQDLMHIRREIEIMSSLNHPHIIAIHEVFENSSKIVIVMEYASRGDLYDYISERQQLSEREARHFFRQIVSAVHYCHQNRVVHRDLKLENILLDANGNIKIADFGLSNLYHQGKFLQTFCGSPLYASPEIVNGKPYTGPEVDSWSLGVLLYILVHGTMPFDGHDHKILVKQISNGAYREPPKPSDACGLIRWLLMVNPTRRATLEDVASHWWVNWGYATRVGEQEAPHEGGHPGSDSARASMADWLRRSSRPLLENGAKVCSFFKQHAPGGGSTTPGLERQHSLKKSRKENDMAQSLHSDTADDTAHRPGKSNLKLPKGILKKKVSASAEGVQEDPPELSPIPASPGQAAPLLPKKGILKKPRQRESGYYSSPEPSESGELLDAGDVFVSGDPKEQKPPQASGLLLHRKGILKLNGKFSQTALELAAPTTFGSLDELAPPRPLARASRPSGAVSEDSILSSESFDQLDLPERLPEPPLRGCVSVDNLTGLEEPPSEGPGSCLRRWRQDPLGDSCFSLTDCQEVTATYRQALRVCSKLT

[4] = target: T4, Interleukin-1 receptor-associated kinase 4 (Homo sapiens) (UniProt Q9NWZ3); assay: Selectivity interaction (KinomeScan (DiscoverX)) EUB0000618a IRAK4; conditions: at 10 µM
T4 sequence (whole entry): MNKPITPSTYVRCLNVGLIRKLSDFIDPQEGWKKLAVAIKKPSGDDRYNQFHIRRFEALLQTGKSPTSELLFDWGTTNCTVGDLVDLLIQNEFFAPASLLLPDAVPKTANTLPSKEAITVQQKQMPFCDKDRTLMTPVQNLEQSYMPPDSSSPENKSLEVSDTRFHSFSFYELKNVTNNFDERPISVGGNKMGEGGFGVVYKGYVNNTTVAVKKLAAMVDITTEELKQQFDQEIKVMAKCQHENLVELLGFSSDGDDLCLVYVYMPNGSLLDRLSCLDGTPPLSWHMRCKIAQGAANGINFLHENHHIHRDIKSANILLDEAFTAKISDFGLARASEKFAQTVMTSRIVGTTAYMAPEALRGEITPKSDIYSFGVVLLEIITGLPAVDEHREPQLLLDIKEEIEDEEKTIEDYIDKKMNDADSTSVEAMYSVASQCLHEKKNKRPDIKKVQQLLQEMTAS

[5] = target: T5, Dual specificity mitogen-activated protein kinase kinase 5 (Homo sapiens) (UniProt Q13163); assay: Selectivity interaction (KinomeScan (DiscoverX)) EUB0000618a MAP2K5; conditions: at 10 µM
T5 sequence (whole entry): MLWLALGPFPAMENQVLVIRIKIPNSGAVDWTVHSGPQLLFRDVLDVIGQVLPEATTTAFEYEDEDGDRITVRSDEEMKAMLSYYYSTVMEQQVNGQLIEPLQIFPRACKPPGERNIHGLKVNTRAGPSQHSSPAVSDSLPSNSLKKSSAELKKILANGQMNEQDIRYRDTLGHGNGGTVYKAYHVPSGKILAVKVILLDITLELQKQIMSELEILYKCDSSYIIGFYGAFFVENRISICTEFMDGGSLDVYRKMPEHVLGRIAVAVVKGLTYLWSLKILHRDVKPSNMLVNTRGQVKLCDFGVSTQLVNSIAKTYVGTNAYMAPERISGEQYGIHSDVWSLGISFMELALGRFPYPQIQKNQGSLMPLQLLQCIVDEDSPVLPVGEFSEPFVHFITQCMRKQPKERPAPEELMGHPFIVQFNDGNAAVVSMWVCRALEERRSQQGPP

## CNC(=O)Nc1ccc(-c2nc(N3CC4CCC(C3)O4)c3cnn(C4CCC5(CC4)OCCO5)c3n2)cc1
[1]
  % of control: 25%
[2]
  % of control: 100%

## Cc1cc(F)c(C(=O)Nc2cccc(-c3nncn3C(C)C)n2)cc1-n1cnc(C2CC2)c1
[3]
  % of control: 94%

## O[C@H]1CC[C@H](Nc2ncc3nc(Nc4c(F)cc(F)cc4F)n([C@H]4CCOC4)c3n2)CC1
[4]
  % of control: 94%
[5]
  % of control: 75%
